Measurements published in publication PMC7216583 (Parasites & Vectors, 2020).
Where a name gives a salt, the structure may show the parent alone. Read-outs that look alike come from different tables or passages of the source.

Legend:
cancer cell lines = system: cancer cell lines; design: method as in S-inhibitor catalog; details: vendor brief description; ref S-inhibitor catalog; cited from earlier work
[1] = system: Toxoplasma gondii RH-2F tachyzoites; test: microbe, parasite or virus in culture; details: 72 h
5-HT1D = biological target: 5-HT1D; design: method as in S-inhibitor catalog; details: vendor brief description; ref S-inhibitor catalog; cited from earlier work
γ-secretase [2] = biological target: γ-secretase; design: method as in S-inhibitor catalog; details: vendor brief description; ref S-inhibitor catalog; read-out: IC50, membrane-based γ-secretase; cited from earlier work
γ-secretase [3] = biological target: γ-secretase; design: method as in S-inhibitor catalog; details: vendor brief description; ref S-inhibitor catalog; read-out: IC50, cell-based γ-secretase; cited from earlier work
[4] = biological target: TGF-β receptor type II (TβRII); design: method as in S-inhibitor catalog; details: vendor brief description; ref S-inhibitor catalog; cited from earlier work
[5] = biological target: Aβ40 production (γ-secretase); design: method as in S-inhibitor catalog; details: in human SH-SY5Y cells; vendor brief description; ref S-inhibitor catalog; read-out: IC50, reduction of Aβ40 production; cited from earlier work
MDMX = system: MDMX; design: method as in S-inhibitor catalog; details: vendor brief description; ref S-inhibitor catalog; read-out: IC50, MDMX suppression; cited from earlier work
DNA-PK = system: DNA-PK; design: method as in S-inhibitor catalog; details: vendor brief description; ref S-inhibitor catalog; cited from earlier work
PI3K = system: PI3K; design: method as in S-inhibitor catalog; details: vendor brief description; ref S-inhibitor catalog; cited from earlier work
in vitro = details: human, Host viability (%) mean
Aurora A = system: Aurora A; design: method as in S-inhibitor catalog; details: vendor brief description; ref S-inhibitor catalog; cited from earlier work
Aurora B = system: Aurora B; design: method as in S-inhibitor catalog; details: vendor brief description; ref S-inhibitor catalog; cited from earlier work
HSP90 = biological target: HSP90; design: method as in S-inhibitor catalog; details: vendor brief description; ref S-inhibitor catalog; cited from earlier work
Her-2 degradation = system: Her-2 degradation; design: method as in S-inhibitor catalog; details: vendor brief description; ref S-inhibitor catalog; cited from earlier work
p38α = details: read-out: IC50, p38α; vendor brief description; ref S-inhibitor catalog; cited from earlier work
GPR40 = system: GPR40; design: method as in S-inhibitor catalog; details: vendor brief description; ref S-inhibitor catalog; read-out: EC50, GPR40 agonist; cited from earlier work
JAK2 = system: JAK2; design: method as in S-inhibitor catalog; details: vendor brief description; ref S-inhibitor catalog; cited from earlier work
Flt3 = system: Flt3; design: method as in S-inhibitor catalog; details: vendor brief description; ref S-inhibitor catalog; cited from earlier work
Ret = system: Ret; design: method as in S-inhibitor catalog; details: vendor brief description; ref S-inhibitor catalog; cited from earlier work
5-HT Receptor = biological target: 5-HT Receptor; design: method as in S-inhibitor catalog; details: vendor brief description; ref S-inhibitor catalog; cited from earlier work
[6] = biological target: farnesoid X receptor (FXR); design: method as in S-inhibitor catalog; details: vendor brief description; ref S-inhibitor catalog; read-out: EC50, FXR agonist; cited from earlier work
APPL (γ-secretase) = biological target: APPL (γ-secretase); design: method as in S-inhibitor catalog; details: vendor brief description; ref S-inhibitor catalog; cited from earlier work
Notch (γ-secretase) = biological target: Notch (γ-secretase); design: method as in S-inhibitor catalog; details: vendor brief description; ref S-inhibitor catalog; cited from earlier work
[7] = read-out: Parasite inhibition (%) mean, preliminary screen of compound library, mean

For `O=C(Cc1ccc(-c2ccc(OCCN3CCOCC3)cc2)cn1)NCc1ccccc1` [KX2-391], the GI50 (cancer cell lines) is listed as 9 to 60 nM and the inhibition of growth at 5 µM [1, 7] is listed as 7.6%.
For `CC1(C)C(=O)N(CCN2CCC(C(=O)c3ccc(F)cc3)CC2)c2ccccc21` [LY310762], the Ki (5-HT1D) is listed as roughly 200 nM and the inhibition of growth at 5 µM [1, 7] is listed as 1.5%.
For `C[C@H](NC(=O)[C@@H](O)c1cc(F)cc(F)c1)C(=O)N[C@@H]1C(=O)N(C)c2ccccc2-c2ccccc21` [LY411575], the IC50 (γ-secretase [2]) is listed as 0.078 nM, the IC50 (γ-secretase [3]) is listed as 0.082 nM and the inhibition of growth at 5 µM [1, 7] is listed as 0.9%.
In the case of `c1ccc(-c2nn3c(c2-c2ccnc4cc(OCCN5CCOCC5)ccc24)CCC3)nc1` [LY2109761], the Ki [4] is listed as 300 nM and the inhibition of growth at 5 µM ([1]; read-out: Parasite inhibition (%) mean) is listed as 46.7%.
In the case of `O=C(O)CC[C@H]1CC[C@@](c2cc(F)ccc2F)(S(=O)(=O)c2ccc(Cl)cc2)CC1` [MK-0752], the IC50 [5] is listed as 5 nM and the inhibition of growth at 5 µM [1, 7] is listed as 7.5%.
For `CN1CCN(c2ccc([N+](=O)[O-])c3no[n+]([O-])c23)CC1` [NSC-207895 (XI-006)], the IC50 (MDMX) is listed as 2500 nM and the inhibition of growth at 5 µM [1, 7] is listed as 0.2%.
For `O=c1cc(N2CCOCC2)oc2c(-c3cccc4c3sc3ccccc34)cccc12` [NU7441 (KU-57788)], the IC50 (DNA-PK) is given as 14 nM, the IC50 (PI3K) is given as 5000 nM and the inhibition of growth at 5 µM [1, 7] is given as 21.5%.
In the case of `CC(=O)NCC(=O)N1[C@H]2CC[C@H]1c1cc(Nc3ncc(C(F)(F)F)c(NC4CCC4)n3)ccc12` [PF-03814735], the viability at 72 h (in vitro) is listed as 60.3%, the IC50 (Aurora A) is listed as 0.8 nM and the IC50 (Aurora B) is listed as 5 nM. It also gave an inhibition of growth at 5 µM [1, 7] of 80.4%.
In the case of `CC1(C)CC(=O)c2c(C(F)(F)F)nn(-c3ccc(C(N)=O)c(N[C@H]4CC[C@H](OC(=O)CN)CC4)c3)c2C1` [PF-04929113 (SNX-5422)], the Kd (HSP90) is listed as 41 nM, the IC50 (Her-2 degradation) is listed as 37 nM and the inhibition of growth at 5 µM [1, 7] is listed as 4.6%.
For `CNC(=O)c1ccc(C)c(-n2c(C)cc(OCc3ccc(F)cc3F)c(Br)c2=O)c1` [PH-797804], the IC50 (p38α) is listed as 26 nM and the inhibition of growth at 5 µM [1, 7] is listed as 1.5%.
In the case of `Cc1cc(OCCCS(C)(=O)=O)cc(C)c1-c1cccc(COc2ccc3c(c2)OC[C@H]3CC(=O)O)c1` [TAK-875], the EC50 (GPR40) is given as […] and the inhibition of growth at 5 µM [1, 7] is given as -10.4%.
In the case of `Cc1cnc(Nc2ccc(N3CCN(C)CC3)cc2)nc1Nc1cccc(S(=O)(=O)NC(C)(C)C)c1` [TG101209], the IC50 (JAK2) is listed as 6 nM, the IC50 (Flt3) is listed as 25 nM and the IC50 (Ret) is listed as 17 nM. For the same compound, the inhibition of growth at 5 µM [1, 7] was -21.3%.
In the case of `COc1ccccc1N1CCN(CCN(C(=O)C2CCCCC2)c2ccccn2)CC1` [WAY-100635 HCl], the IC50 (5-HT Receptor) is given as 0.95 nM and the inhibition of growth at 5 µM [1, 7] is given as -0.7%.
For `CC(C)OC(=O)C1=CN(C(=O)c2ccc(F)c(F)c2)CC(C)(C)c2c1[nH]c1ccccc21` [WAY-362450], the EC50 [6] is listed as 4 nM and the inhibition of growth at 5 µM [1, 7] is listed as -2.1%.
For `C[C@H](NC(=O)Cc1cc(F)cc(F)c1)C(=O)N[C@@H]1C(=O)N(C)c2ccccc2-c2ccccc21` [YO-01027], the IC50 (APPL (γ-secretase)) is given as 2.6 nM, the IC50 (Notch (γ-secretase)) is given as 2.9 nM and the inhibition of growth at 5 µM [1, 7] is given as 1.4%.
